Legend:
[1] = in vivo; cited from earlier work
[2] = tested on: cardiac muscle mitochondria; assay: Cardiac muscle mitochondrial function (St. III O2, RCI) after coronary ischemia-reperfusion; type: in vivo; details: dog; 10 mg/kg i.v. just before reperfusion; FIGS. 1A and 1B
From the text: Electrocardiogram electrodes were attached, and monitoring and recording were continued throughout the experiment. Following insertion of cannulas in the right femoral vein and right femoral artery, the cannulas were used for continuous intravenous drip of physiological saline to replenish water or administration of the test preparation, and monitoring of arterial blood pressure, respectively. After performing left thoracotomy in the fourth or fifth intercostal space, the pericardium was torn to expose the heart. Ischemia was induced by ligating the left anterior descending coronary artery immediately distal to the first diagonal branch, while reperfusion was performed by subsequently removing that ligation. The animals were divided into four groups. […] Mitochondria was obtained by removing the heart immediately after the end of ischemia or reperfusion, washing with cold physiological saline, promptly cutting out the ischemic or reperfused area and the normal area, and immediately performing preparation from the respective area according to the method described by […], et al. in Arch. Biochem. Biophys., Vol. 94, pp. 148-155, 1961. The glutathione content of the mitochondria was measured by applying the method described by Tietze in Anal. […] Evaluation of mitochondrial function was performed according to the method described by Sugiyama, et al. in Am. […]

[3] = tested on: cardiac muscle mitochondria; assay: Glutathione content of cardiac muscle mitochondria after coronary ischemia-reperfusion; type: in vivo; details: dog; for effect on reduction of mitochondrial glutathione during reperfusion / Glutathione content of cardiac muscle mitochondria, GSH + GSSG, normal area / Glutathione content of cardiac muscle mitochondria, GSH, normal area / Glutathione content of cardiac muscle mitochondria, GSSG, normal area / Glutathione content of cardiac muscle mitochondria, GSH + GSSG, ischemic or reperfused area / Glutathione content of cardiac muscle mitochondria, GSH, ischemic or reperfused area / Glutathione content of cardiac muscle mitochondria, GSSG, ischemic or reperfused area: 10 mg/kg i.v. just before reperfusion; for Glutathione content of cardiac muscle mitochondria, GSH + GSSG, normal area / Glutathione content of cardiac muscle mitochondria, GSH, normal area / Glutathione content of cardiac muscle mitochondria, GSSG, normal area / Glutathione content of cardiac muscle mitochondria, GSH + GSSG, ischemic or reperfused area / Glutathione content of cardiac muscle mitochondria, GSH, ischemic or reperfused area / Glutathione content of cardiac muscle mitochondria, GSSG, ischemic or reperfused area: 2 h ischemia / 1 h reperfusion
Protocol: (§1) After anesthetizing 52 adult mongrel dogs of either sex weighing ca. 10 kg by intraperitoneal administration of 50 mg/kg of sodium pentobarbital, breathing tubes were immediately intubated endotracheally and artificial ventilation was continued using a Harvard ventilator. Electrocardiogram electrodes were attached, and monitoring and recording were continued throughout the experiment. Following insertion of cannulas in the right femoral vein and right femoral artery, the cannulas were used for continuous intravenous drip of physiological saline to replenish water or administration of the test preparation, and monitoring of arterial blood pressure, respectively. After performing left thoracotomy in the fourth or fifth intercostal space, the pericardium was torn to expose the heart. Ischemia was induced by ligating the left anterior descending coronary artery immediately distal to the first diagonal branch, while reperfusion was performed by subsequently removing that ligation.
(§2) The animals were divided into four groups. Group 1 (n=9) was subjected to ischemia for 2 hours, group 2 (n=17) was subjected to ischemia for 2 hours followed by reperfusion for 1 hour, group 3 (n=10) was subjected to ischemia for 2 hours followed by reperfusion for 1 hour plus intravenous injection of 10 mg/kg of γ-GCE just before reperfusion, and group 4 (n=16) was subjected to 2 hours of ischemia followed by 1 hour of reperfusion plus intravenous injection of 10 mg/kg of reduced glutathione (GSH, control drug) just before reperfusion.
Evaluation of ischemia-reperfusion injury was performed, following completion of ischemia-reperfusion, by measuring (1) glutathione content of mitochondria, and (2) mitochondrial function, and so on, at the ischemic or reperfused area and the normal area of the heart. Mitochondria was obtained by removing the heart immediately after the end of ischemia or reperfusion, washing with cold physiological saline, promptly cutting out the ischemic or reperfused area and the normal area, and immediately performing preparation from the respective area according to the method described by Hatefi, et al. in Arch. Biochem. Biophys., Vol. 94, pp. 148-155, 1961.
The glutathione content of the mitochondria was measured by applying the method described by Tietze in Anal. Biochem., Vol. 27, pp. 502-522, 1969 to the supernatant obtained by immediately adding 1/10 vol of 27.5% (w/v) sulfosalicylic acid dihydrate aqueous solution to the prepared mitochondria suspension followed by protein denaturation and centrifugation. Evaluation of mitochondrial function was performed according to the method described by Sugiyama, et al. in Am. Heart J., Vol. 100, pp. 829-837, 1980, by polarographically measuring respiratory ability using an oxygen electrode and determining the rate of oxygen consumption is state III (St. III O2) and the respiratory control index (RCI).

[4] = tested on: coronary ischemia-reperfusion model using dogs; assay: Mortality during coronary ischemia-reperfusion in dogs; type: in vivo; details: dog; for Mortality rate (number of dogs that died / number of dogs in experiment), 1 hour of reperfusion: 1 hour of reperfusion after 10 mg/kg i.v. just before reperfusion; for Mortality rate (number of dogs that died / number of dogs in experiment), 2 hours of ischemia: before the drug was given (10 mg/kg i.v. just before reperfusion)
Protocol: as §1, §2

[5] = tested on: pulmonary membrane β-receptors; assay: Number of pulmonary membrane β-receptors in ovalbumin inhalation model; type: in vivo; details: guinea pig; 2% OA aerosol 10 days; 10 mg/kg i.p. twice daily for 10 days; FIG. 4
Protocol: (§3) Male Hartley guinea pigs weighing 350-400 g were divided into three groups, i.e., the control group, the ovalbumin (OA) group and the OA+γ-GCE group. The control group was allowed to inhale an aerosol of physiological saline for 7-8 minutes per day for 10 consecutive days. The OA group was allowed to inhale an aerosol of 2% OA in the same manner. The OA+γ-GCE group was allowed to similarly inhale an aerosol of 2% OA together with intraperitoneal administration of 10 mg/kg of γ-GCE twice daily for 10 days. […] Each of the measurements were made using 6 animals in each group, and the results were expressed as mean ± standard deviation. Evaluation of significance was performed using Dunnett's test. Cases of P being less than 0.05 were considered to be statistically significant.

[6] = tested on: pulmonary membrane adenylate cyclase; assay: Pulmonary membrane adenylate cyclase activity in ovalbumin inhalation model; type: in vivo; details: guinea pig; 2% OA aerosol 10 days; 10 mg/kg i.p. twice daily for 10 days; isoproterenol-stimulated and baseline; FIG. 5
Protocol: as §3

[7] = tested on: xanthine oxidase; assay: Xanthine oxidase activities in lung tissue, bronchoalveolar lavage fluid and serum; type: in vivo; details: guinea pig; OA inhalation 10 days + 10 mg/kg i.p. twice daily
Protocol: as §3

[8] = tested on: ovalbumin inhalation model using guinea pigs; assay: Airway responsiveness (Ach PC200) in ovalbumin inhalation model; type: in vivo; details: guinea pig; 2% OA aerosol 10 days; 10 mg/kg i.p. twice daily for 10 days; FIG. 3
Protocol: Male Hartley guinea pigs weighing 350-400 g were divided into three groups, i.e., the control group, the ovalbumin (OA) group and the OA+γ-GCE group. The control group was allowed to inhale an aerosol of physiological saline for 7-8 minutes per day for 10 consecutive days. The OA group was allowed to inhale an aerosol of 2% OA in the same manner. The OA+γ-GCE group was allowed to similarly inhale an aerosol of 2% OA together with intraperitoneal administration of 10 mg/kg of γ-GCE twice daily for 10 days.
Evaluation of efficacy was performed by measuring (1) the minimum provocative concentration of acetylcholine (Ach) at which the respiratory resistance reached more than 200% of baseline (Ach Provocative Concentration 200) both before and after inhalation for 10 days, together with measuring (2) the number of pulmonary membrane β-receptors and adenylate cyclase activity, and (3) xanthine oxidase activities in lung tissue, bronchoalveolar lavage fluid and serum, following 10 days of inhalation.
Each of the measurements were made using 6 animals in each group, and the results were expressed as mean ± standard deviation. Evaluation of significance was performed using Dunnett's test. Cases of P being less than 0.05 were considered to be statistically significant.

[9] = 10 mg/kg i.v. just before reperfusion

Compound	effect on reduction in cardiac muscle mitochondrial function (St. III O2, RCI) during reperfusion [2]	effect on reduction of mitochondrial glutathione during reperfusion [3]	Glutathione content of cardiac muscle mitochondria, GSH + GSSG, normal area [3]	Glutathione content of cardiac muscle mitochondria, GSH, normal area [3]	Glutathione content of cardiac muscle mitochondria, GSSG, normal area [3]	Glutathione content of cardiac muscle mitochondria, GSH + GSSG, ischemic or reperfused area [3]	Glutathione content of cardiac muscle mitochondria, GSH, ischemic or reperfused area [3]	Glutathione content of cardiac muscle mitochondria, GSSG, ischemic or reperfused area [3]	Mortality rate (number of dogs that died / number of dogs in experiment), 1 hour of reperfusion [4]	Mortality rate (number of dogs that died / number of dogs in experiment), 2 hours of ischemia [4]	other results
N[C@@H](CCC(=O)N[C@@H](CS)C(=O)NCC(=O)O)C(=O)O [GSH, reduced glutathione, reference compound]	no protective effects were observed whatsoever	no such effects were observed	3.94 ± 0.33	3.67 ± 0.37	0.27 ± 0.08	2.44 ± 0.57	2.17 ± 0.52	0.27 ± 0.09	7/15	1/16	half-life in the blood when administered [1]: several minutes; animals died due to ventricular fibrillation during reperfusion [4, 9]: ca. 50%
CCOC(=O)[C@H](CS)NC(=O)CC[C@H](N)C(=O)O [γ-GCE, γ-L-glutamyl-L-cysteine ethyl ester]	completely suppressed	significantly suppress further reduction of glutathione during the reperfusion	4.06 ± 0.52	3.68 ± 0.54	0.38 ± 0.09	3.57 ± 0.46	3.12 ± 0.40	0.45 ± 0.15	0/8	2/10	effect on the reduction in pulmonary membrane β-receptors after OA inhalation [5]: inhibited; mitochondrial glutathione levels (GSH, GSH+GSSG) of reperfused area relative to normal area after reperfusion ([3]; 10 mg/kg just before reperfusion): 85-88%; mortality rate during reperfusion [4, 9]: 0; effect on the reduction in pulmonary membrane adenylate cyclase activity after OA inhalation [6]: inhibited; Xanthine oxidase activity, bronchoalveolar lavage fluid [7]: 9.43 ± 0.95 mU/ml; Xanthine oxidase activity, lung tissue [7]: 33.3 ± 4.02 mU/g tissue; Xanthine oxidase activity, serum [7]: 10.0 ± 1.77 mU/ml; xanthine oxidase values compared with the OA group, lung tissue and bronchoalveolar lavage fluid [7]: significantly lower than those of the OA group; effect on increase in airway responsiveness (decrease in log[Ach PC200]) after OA inhalation [8]: inhibited (1) the remarkable increase in airway responsiveness
